Tests used:
[1] = system: neural crest cells; conditions: 1 μM CHIR99021; culture for 7 days; suspension culture; cited from earlier work
[2] = target: GSK3β (Homo sapiens, UniProt P49841); experiment: GSK3β inhibitory activity, CellSensor LEF/TCF-bla HCT-116 reporter assay; assay type: cell-based
Text: In the Wnt/β-catenin pathway, GSK3β functions to phosphorylate β-catenin in the absence of Wnt-ligand. The phosphorylated β-catenin is ubiquitinated and degraded within the proteasome. Therefore, gene expression downstream of the Wnt-β-catenin pathway is suppressed. If GSK3β in this pathway is inhibited, β-catenin is translocated into the nucleus, without being degraded, to induce gene expression downstream of the Wnt-β-catenin pathway together with other transcription factors such as T-cell factor (TCF)/lymphoid enhancer factor (LEF). CellSensor LEF/TCF-bla HCT-116 Cell Line (Thermo Fisher Scientific Inc., K1676) stably incorporates therein LEF/TCF and incorporates a reporter gene (beta-lactamase reporter gene) so as to express the reporter gene under the control of LEF/TCF. The expression of the reporter gene in this cell line in the absence of the Wnt-ligand serves as an index for the inhibition of the function (β-catenin phosphorylation function) of GSK3β. The GSK3β inhibitory activity of the GSK3β inhibitor was measured by assay using this cell line.
The assay was conducted in accordance with the protocol of Invitrogen Corp. (CellSensor® LEF/TCF-bla HCT 116 Cell-based Assay Protocol).
Specifically, LEF/TCF-bla HCT-116 Cells were suspended in an assay medium (OPTI-MEM, 0.5% dialyzed FBS, 0.1 mM NEAA, 1 mM sodium pyruvate, 100 U/mL/100 μg/mL Pen/Strep) (312,500 cells/mL). The cell suspension was inoculated to each well of an assay plate (10,000 cells/well), and cultured for 16 to 24 hours.
A beta-lactamase substrate solution (LiveBLAzer-FRET B/G (CCF4-AM) Substrate Mixture) was added to each well (8 μL/well) and incubated for 2 hours. A fluorescence value was measured in a fluorescence plate reader. The measurement was performed in two wells per each concentration condition.

[3] = system: neural crest cells (NCCs); experiment: Expansion (suspension) culture of neural crest cells: percentage of SOX10 expression-positive cells by flow cytometry; assay type: cell-based, Human; conditions: for influence of concentration on change in the percentage of SOX10 expression-positive cells: bFGF and EGF 20 or 40 ng/ml
Text: (§1) Human iPSCs were allowed to differentiate into neural crest cells (NCCs) according to the method described in Non Patent Literature 1. The iPSCs used were SOX10-Nano-Lantern Reporter Human iPSCs (201B7 line) described in Non Patent Literature 4. This cell line has an insert of a nucleotide sequence encoding a fluorescent protein Nano-Lantern (Saito K. et al., “Luminescent proteins for high-speed single-cell and whole-body imaging.” Nat. Commun., 2012; 3: 1262) downstream of SOX10 gene, a marker gene of NCCs, and expresses a fusion protein of SOX10 and Nano-Lantern under the control of SOX10 promoter.
(§2) iPSCs were inoculated to a Matrigel-coated dish, adherent-cultured for 4 days in TeSR1 medium, and then adherent-cultured for 10 days in CDM medium containing 10 μM SB431542 (TGFβ inhibitor) and 1 μM CHIR99021 (GSK3β inhibitor), and thereby allowed to differentiate into NCCs.
[…] The cells were passaged every 7 days.
(§3) Change in total cell number after the start of expansion culture is shown in FIG. 1, and change in the percentage of SOX10 expression-positive cells is shown in FIG. 2. In order to measure the percentage of SOX10 expression-positive cells, an aggregated cell mass was dissociated using StemPro Accutase Cell Dissociation Reagent (Invitrogen Corp.) to prepare single-cell suspensions. The single-cell suspensions in FACS buffer (2% BSA HBSS) supplemented with 1 μg/mL PI (propidium iodide, Wako Pure Chemical Industries, Ltd.) were filtered through a tube with 35 μm nylon mesh (BD Falcon) and then analyzed using a flow cytometer (FACS Aria, BD Biosciences) to measure the ratio of GFP-positive cells in live cells (PI-negative cells). […] The expressed SOX10 serves as a marker of NCCs having multipotency.

[4] = system: neural crest cells (NCCs); experiment: Expansion (suspension) culture of neural crest cells: total cell number / rate of cell proliferation; assay type: cell-based, Human; conditions: for influence of concentration on change in total cell number: bFGF and EGF 20 or 40 ng/ml, CHIR99021 1, 2, 3, 3.5, 4, 4.5 or 5 μM
Text: as §1, §2
NCCs were detached from the dish and suspension-cultured in CDM medium containing 10 μM SB431542, 3 μM CHIR99021, 40 ng/ml bFGF and 40 ng/ml EGF. The cells were passaged every 7 days.
as §3

[5] = system: neural crest cells; conditions: bFGF 0 pg/ml to 10 ng/ml; adherent culture; cited from earlier work
[6] = bFGF 10, 12.5, 15.0 or 17.5 ng/ml, CHIR99021 1.5 μM

Chain of GSK3β (P49841 whole entry): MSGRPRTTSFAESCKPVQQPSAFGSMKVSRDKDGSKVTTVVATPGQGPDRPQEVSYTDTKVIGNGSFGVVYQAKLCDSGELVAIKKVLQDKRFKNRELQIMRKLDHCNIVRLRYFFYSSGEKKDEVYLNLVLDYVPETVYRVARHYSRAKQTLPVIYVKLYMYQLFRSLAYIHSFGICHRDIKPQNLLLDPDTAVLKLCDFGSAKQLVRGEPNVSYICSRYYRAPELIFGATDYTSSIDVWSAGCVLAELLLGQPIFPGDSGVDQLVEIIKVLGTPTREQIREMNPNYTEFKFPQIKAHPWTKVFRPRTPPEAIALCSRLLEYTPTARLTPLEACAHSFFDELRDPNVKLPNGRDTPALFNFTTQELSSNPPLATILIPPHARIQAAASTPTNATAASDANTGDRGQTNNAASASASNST

Question: What does the source list for `Cc1c[nH]c(-c2cnc(NCCNc3ccc(C#N)cn3)nc2-c2ccc(Cl)cc2Cl)n1` [CHIR99021, 6-[[2-[[4-(2,4-dichlorophenyl)-5-(4-methyl-1H-imidazol-2-yl)-2-pyrimidinyl]amino]ethyl]amino]nicotinonitrile]?
Answer: presence of Sox10-positive cells [1]: presence of Sox10-positive cells was confirmed; Fluorescence value Well 1 ([2]; 0.316 nM): 6; Fluorescence value Well 2 ([2]; 0.316 nM): 0; Fluorescence value Well 1 ([2]; 1.00 nM): 0; Fluorescence value Well 2 ([2]; 1.00 nM): 0; Fluorescence value Well 1 ([2]; 3.16 nM): 0; Fluorescence value Well 2 ([2]; 3.16 nM): 14; Fluorescence value Well 1 ([2]; 10.0 nM): 12; Fluorescence value Well 2 ([2]; 10.0 nM): 23; Fluorescence value Well 1 ([2]; 31.6 nM): 21; Fluorescence value Well 2 ([2]; 31.6 nM): 45; Fluorescence value Well 1 ([2]; 100 nM): 75; Fluorescence value Well 2 ([2]; 100 nM): 60; Fluorescence value Well 1 ([2]; 316 nM): 101; Fluorescence value Well 2 ([2]; 316 nM): 96; GSK3β inhibitory activity in terms of the fluorescence value (mean from the two wells) ([2]; 1 μM): 113.5; Fluorescence value Well 1 ([2]; 1000 nM): 114; Fluorescence value Well 2 ([2]; 1000 nM): 113; Fluorescence value Well 1 ([2]; 3160 nM): 99; Fluorescence value Well 2 ([2]; 3160 nM): 136; Fluorescence value Well 1 ([2]; 10000 nM): 88; Fluorescence value Well 2 ([2]; 10000 nM): 73; percentage of SOX10 expression-positive cells ([3]; 3 μM CHIR99021, 10 μM SB431542, 40 ng/ml bFGF, 40 ng/ml EGF, on 121 days of culture): high percentage of SOX10 expression-positive cells was confirmed; time of culture at which the number of cells that maintained multipotency decreased ([3]; CHIR99021 1 μM): 21 days; percentage of SOX10 expression-positive cells ([3]; CHIR99021 1 μM, on 21 days of culture): decrease in the percentage of SOX10 expression-positive cells was observed; percentage of SOX10 expression-positive cells ([3]; CHIR99021 1 μM, on 63 days of culture): ≤ 25%; period over which multipotency was maintained ([3]; CHIR99021 2 μM): ≥ 63 days; percentage of SOX10 expression-positive cells ([3]; CHIR99021 2 μM, on 63 days of culture): ≥ 55%; time of culture at which the number of cells that maintained multipotency decreased ([3]; CHIR99021 5 μM): 42 days; percentage of SOX10 expression-positive cells ([3]; CHIR99021 5 μM, on 63 days of culture): ≤ 5%; percentage of SOX10 expression-positive cells ([3]; CHIR99021 5 μM, up to 42 days of culture): ≥ 55%; period of culture and proliferation of neural crest cells that maintained multipotency ([3]; CHIR99021 3 to 4.5 μM): ≥ 112 days; percentage of SOX10 expression-positive cells ([3]; CHIR99021 3 to 4.5 μM, on 121 days of culture): ≥ 90%; change in total cell number after the start of expansion culture ([4]; 3 μM CHIR99021, 10 μM SB431542, 40 ng/ml bFGF, 40 ng/ml EGF, whole culture period): increased over the whole period; influence of concentration on change in total cell number [4]: no influence

Question: Which results are given for `Cn1cc(C2=C(c3cccc(N)c3)C(=O)NC2=O)c2ccccc21` [CP21R7, 3-(3-amino-phenyl)-4-(1-methyl-1H-indol-3-yl)-pyrrole-2,5-dione]?
Answer: time of culture at which the number of cells that maintained multipotency decreased ([3]; CP21R7 0.1 μM): 21 days; percentage of SOX10 expression-positive cells ([3]; CP21R7 0.1 μM, on 21 days of culture): started to decrease; percentage of SOX10 expression-positive cells ([3]; CP21R7 0.5 or 1 μM, on 84 days of culture): high percentage of SOX10 expression-positive cells was confirmed; period of culture and proliferation of neural crest cells that maintained multipotency ([3]; CP21R7 0.5 to 1 μM): ≥ 84 days

Question: Which “influence of concentration on change in the percentage of SOX10 expression-positive cells” value [3] does the source give for “EGF: epidermal growth factor, medium additive” here?
Answer: The value was “no influence”.

Question: What about the “influence of concentration on change in total cell number” value [4] of the same molecule?
Answer: The value was “no influence”.

Question: Which results are given for “bFGF: basic fibroblast growth factor (bFGF (also referred to as FGF2)), medium additive”?
Answer: number and ratio of neural crest cells in a cultured cell population [5]: decreased in a concentration-dependent manner; influence of bFGF concentration on the percentage of SOX10 expression positivity [3, 6]: no influence; influence of concentration on change in the percentage of SOX10 expression-positive cells [3]: no influence; behavior of change in total cell number [4, 6]: substantially the same; influence of concentration on change in total cell number [4]: no influence
